Calls of active or inactive are those of the source. No cut-off for these calls is given here.
Tests used:
[1] = target: Serine/threonine-protein kinase ATR (Homo sapiens) (UniProt Q13535); experiment: Inhibition of ATR ATP labeling site in human A-375 cells at 5 uM by KiNativ Profiling analysis relative to control; format: cell-based
[2] = target: T1, Phosphatidylinositol 5-phosphate 4-kinase type-2 alpha (Homo sapiens) (UniProt P48426); experiment: Inhibition of PIP4K2A ATP labeling site in human A-375 cells at 0.05 uM by KiNativ Profiling analysis relative to control; format: cell-based
T1 sequence (whole entry): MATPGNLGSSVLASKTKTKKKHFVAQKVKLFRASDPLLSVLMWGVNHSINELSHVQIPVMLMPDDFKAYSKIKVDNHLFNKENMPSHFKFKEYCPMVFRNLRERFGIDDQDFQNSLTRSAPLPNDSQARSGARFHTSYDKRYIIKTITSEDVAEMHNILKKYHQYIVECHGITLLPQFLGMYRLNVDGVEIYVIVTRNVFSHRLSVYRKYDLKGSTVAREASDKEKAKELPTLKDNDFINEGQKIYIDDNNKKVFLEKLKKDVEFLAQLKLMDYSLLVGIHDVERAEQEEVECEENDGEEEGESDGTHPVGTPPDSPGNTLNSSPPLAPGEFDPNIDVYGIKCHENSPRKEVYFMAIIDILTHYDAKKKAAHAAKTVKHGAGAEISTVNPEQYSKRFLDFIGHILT

[3] = target: Casein kinase I isoform alpha (Homo sapiens) (UniProt P48729); experiment: Inhibition of CK1 alpha K2 labeling site in human Huh-7 cells at 1 uM by KiNativ Profiling analysis relative to control; format: cell-based
[4] = target: T2, Serine/threonine-protein kinase STK11 (Homo sapiens) (UniProt Q15831); experiment: Inhibition of LKB1 K2 labeling site in human Huh-7 cells at 10 uM by KiNativ Profiling analysis relative to control; format: cell-based
T2 sequence (whole entry): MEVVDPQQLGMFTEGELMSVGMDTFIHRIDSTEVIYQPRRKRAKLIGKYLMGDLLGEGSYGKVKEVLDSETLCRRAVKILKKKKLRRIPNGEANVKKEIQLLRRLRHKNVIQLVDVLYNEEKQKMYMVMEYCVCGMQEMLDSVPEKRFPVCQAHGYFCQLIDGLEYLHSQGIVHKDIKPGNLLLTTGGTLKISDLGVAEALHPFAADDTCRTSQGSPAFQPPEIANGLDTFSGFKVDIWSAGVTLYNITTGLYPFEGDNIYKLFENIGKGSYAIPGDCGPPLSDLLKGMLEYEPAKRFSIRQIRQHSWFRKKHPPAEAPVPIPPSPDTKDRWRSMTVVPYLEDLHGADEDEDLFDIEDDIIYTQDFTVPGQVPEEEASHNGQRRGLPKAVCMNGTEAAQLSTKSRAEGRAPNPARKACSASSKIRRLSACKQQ

[5] = target: Protein kinase C epsilon type (Homo sapiens) (UniProt Q02156); experiment: Inhibition of PRKCE (unknown origin) at 10 uM by Ambit Kinomescan binding assay relative to control
[6] = target: Serine/threonine-protein kinase A-Raf (Homo sapiens) (UniProt P10398); experiment: Inhibition of ARAF Lys2 labeling site in human A-375 cells at 0.5 uM by KiNativ Profiling analysis relative to control; format: cell-based
[7] = target: Mitogen-activated protein kinase 4 (Homo sapiens) (UniProt P31152); experiment: Inhibition of ERK4 (unknown origin) at 10 uM by Ambit Kinomescan binding assay
[8] = target: T3, Serine/threonine-protein kinase LATS2 (Homo sapiens) (UniProt Q9NRM7); experiment: Inhibition of LATS2 (unknown origin) at 10 uM by Ambit Kinomescan binding assay relative to control
T3 sequence (whole entry): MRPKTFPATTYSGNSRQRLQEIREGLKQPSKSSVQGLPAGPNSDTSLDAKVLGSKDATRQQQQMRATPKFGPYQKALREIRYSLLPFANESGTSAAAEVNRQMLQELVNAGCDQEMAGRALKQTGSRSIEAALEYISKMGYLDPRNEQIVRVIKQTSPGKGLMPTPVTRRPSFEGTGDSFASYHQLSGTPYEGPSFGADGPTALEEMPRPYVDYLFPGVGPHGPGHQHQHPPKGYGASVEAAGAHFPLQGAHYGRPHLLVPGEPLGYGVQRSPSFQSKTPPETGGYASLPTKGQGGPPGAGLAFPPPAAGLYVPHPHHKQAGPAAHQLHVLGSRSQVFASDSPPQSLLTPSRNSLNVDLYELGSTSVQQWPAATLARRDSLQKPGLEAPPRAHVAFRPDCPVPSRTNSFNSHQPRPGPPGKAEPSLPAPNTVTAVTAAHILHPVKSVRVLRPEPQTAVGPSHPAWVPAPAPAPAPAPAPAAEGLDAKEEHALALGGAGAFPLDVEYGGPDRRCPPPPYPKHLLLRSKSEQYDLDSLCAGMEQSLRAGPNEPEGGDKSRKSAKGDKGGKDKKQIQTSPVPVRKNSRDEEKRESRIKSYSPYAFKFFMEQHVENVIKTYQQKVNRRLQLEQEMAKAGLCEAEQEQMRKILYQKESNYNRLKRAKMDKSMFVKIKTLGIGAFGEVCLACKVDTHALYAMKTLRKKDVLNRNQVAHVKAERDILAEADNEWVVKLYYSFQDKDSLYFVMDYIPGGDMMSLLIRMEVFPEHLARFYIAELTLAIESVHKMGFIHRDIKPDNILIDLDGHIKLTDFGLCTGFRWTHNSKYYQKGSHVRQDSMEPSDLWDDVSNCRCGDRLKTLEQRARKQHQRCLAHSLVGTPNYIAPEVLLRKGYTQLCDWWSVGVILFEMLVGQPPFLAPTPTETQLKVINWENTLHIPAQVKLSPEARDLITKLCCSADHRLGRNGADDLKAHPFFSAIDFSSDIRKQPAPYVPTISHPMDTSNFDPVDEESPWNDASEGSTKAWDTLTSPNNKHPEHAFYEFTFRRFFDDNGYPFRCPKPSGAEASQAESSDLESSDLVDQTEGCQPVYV

[9] = target: Vascular endothelial growth factor receptor 2 (Homo sapiens) (UniProt P35968); experiment: Inhibition of VEGFR2 (unknown origin) at 10 uM by Ambit Kinomescan binding assay relative to control; values are per cent of control
[10] = target: Cyclin-dependent kinase 16 (Homo sapiens) (UniProt Q00536); experiment: Inhibition of PFTAIRE1 Lys2 labeling site in human A-375 cells at 0.5 uM by KiNativ Profiling analysis relative to control; format: cell-based
[11] = target: Mitogen-activated protein kinase kinase kinase 11 (Homo sapiens) (UniProt Q16584); experiment: Inhibition of MLK3 Lys2 labeling site in human A-375 cells at 0.05 uM by KiNativ Profiling analysis relative to control; format: cell-based
[12] = target: Calcium/calmodulin-dependent protein kinase kinase 2 (Homo sapiens) (UniProt Q96RR4); experiment: Inhibition of CAMKK2 (unknown origin) at 1 uM by Ambit Kinomescan binding assay relative to control; values are per cent of control
[13] = target: Serine/threonine-protein kinase SIK3 (Homo sapiens) (UniProt Q9Y2K2); experiment: Inhibition of QSK Lys2 labeling site in human A-375 cells at 0.05 uM by KiNativ Profiling analysis relative to control; format: cell-based

Sequence of Serine/threonine-protein kinase A-Raf (Homo sapiens) (P10398 whole entry): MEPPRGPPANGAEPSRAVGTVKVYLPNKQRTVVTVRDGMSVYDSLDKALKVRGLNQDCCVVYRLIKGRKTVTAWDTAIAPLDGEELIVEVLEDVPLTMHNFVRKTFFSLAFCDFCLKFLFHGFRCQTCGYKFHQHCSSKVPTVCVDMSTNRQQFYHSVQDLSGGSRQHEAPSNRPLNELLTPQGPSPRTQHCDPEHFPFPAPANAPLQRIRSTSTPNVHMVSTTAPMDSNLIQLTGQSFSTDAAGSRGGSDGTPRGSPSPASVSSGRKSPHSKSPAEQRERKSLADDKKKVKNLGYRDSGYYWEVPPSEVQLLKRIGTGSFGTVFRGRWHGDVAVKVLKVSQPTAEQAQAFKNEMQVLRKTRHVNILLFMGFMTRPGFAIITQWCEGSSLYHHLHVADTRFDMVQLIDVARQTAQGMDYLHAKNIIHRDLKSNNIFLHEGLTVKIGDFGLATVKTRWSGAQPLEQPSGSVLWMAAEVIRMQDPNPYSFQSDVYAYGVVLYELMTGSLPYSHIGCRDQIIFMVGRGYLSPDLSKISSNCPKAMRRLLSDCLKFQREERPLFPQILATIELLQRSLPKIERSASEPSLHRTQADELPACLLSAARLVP
Sequence of Casein kinase I isoform alpha (Homo sapiens) (P48729 2-337 limits assumed): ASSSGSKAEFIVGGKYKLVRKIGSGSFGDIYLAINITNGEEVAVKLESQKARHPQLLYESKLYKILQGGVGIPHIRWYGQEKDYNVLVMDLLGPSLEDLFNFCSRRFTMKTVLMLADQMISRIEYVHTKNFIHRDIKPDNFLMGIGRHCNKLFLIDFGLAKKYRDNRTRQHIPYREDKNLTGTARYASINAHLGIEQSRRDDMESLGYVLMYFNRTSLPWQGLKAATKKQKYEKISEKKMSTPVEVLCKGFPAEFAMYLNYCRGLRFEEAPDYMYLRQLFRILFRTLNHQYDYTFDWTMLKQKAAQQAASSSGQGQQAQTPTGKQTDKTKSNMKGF
Sequence of Mitogen-activated protein kinase kinase kinase 11 (Homo sapiens) (Q16584 whole entry, looked up): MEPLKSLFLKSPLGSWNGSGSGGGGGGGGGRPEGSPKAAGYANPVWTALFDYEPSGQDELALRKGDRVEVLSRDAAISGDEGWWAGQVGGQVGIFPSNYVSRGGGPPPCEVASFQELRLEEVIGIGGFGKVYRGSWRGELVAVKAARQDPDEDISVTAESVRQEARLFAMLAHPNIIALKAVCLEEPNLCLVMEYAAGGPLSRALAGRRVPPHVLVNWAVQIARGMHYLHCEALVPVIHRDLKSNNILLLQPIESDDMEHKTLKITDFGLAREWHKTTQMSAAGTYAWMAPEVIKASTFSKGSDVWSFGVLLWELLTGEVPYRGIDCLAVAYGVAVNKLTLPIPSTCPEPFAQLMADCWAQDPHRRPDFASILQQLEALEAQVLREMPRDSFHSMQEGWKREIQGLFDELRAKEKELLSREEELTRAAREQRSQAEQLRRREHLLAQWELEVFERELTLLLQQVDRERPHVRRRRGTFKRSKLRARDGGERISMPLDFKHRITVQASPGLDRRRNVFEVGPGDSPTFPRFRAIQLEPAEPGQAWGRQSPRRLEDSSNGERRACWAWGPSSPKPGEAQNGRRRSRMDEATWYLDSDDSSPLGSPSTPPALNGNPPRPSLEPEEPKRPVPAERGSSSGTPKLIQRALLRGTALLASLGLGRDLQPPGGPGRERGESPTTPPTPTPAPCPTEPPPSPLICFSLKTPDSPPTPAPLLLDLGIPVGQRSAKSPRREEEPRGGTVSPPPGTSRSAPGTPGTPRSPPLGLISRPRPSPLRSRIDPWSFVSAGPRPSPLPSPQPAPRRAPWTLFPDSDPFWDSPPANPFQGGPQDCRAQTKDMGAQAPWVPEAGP
Sequence of Vascular endothelial growth factor receptor 2 (Homo sapiens) (P35968 whole entry): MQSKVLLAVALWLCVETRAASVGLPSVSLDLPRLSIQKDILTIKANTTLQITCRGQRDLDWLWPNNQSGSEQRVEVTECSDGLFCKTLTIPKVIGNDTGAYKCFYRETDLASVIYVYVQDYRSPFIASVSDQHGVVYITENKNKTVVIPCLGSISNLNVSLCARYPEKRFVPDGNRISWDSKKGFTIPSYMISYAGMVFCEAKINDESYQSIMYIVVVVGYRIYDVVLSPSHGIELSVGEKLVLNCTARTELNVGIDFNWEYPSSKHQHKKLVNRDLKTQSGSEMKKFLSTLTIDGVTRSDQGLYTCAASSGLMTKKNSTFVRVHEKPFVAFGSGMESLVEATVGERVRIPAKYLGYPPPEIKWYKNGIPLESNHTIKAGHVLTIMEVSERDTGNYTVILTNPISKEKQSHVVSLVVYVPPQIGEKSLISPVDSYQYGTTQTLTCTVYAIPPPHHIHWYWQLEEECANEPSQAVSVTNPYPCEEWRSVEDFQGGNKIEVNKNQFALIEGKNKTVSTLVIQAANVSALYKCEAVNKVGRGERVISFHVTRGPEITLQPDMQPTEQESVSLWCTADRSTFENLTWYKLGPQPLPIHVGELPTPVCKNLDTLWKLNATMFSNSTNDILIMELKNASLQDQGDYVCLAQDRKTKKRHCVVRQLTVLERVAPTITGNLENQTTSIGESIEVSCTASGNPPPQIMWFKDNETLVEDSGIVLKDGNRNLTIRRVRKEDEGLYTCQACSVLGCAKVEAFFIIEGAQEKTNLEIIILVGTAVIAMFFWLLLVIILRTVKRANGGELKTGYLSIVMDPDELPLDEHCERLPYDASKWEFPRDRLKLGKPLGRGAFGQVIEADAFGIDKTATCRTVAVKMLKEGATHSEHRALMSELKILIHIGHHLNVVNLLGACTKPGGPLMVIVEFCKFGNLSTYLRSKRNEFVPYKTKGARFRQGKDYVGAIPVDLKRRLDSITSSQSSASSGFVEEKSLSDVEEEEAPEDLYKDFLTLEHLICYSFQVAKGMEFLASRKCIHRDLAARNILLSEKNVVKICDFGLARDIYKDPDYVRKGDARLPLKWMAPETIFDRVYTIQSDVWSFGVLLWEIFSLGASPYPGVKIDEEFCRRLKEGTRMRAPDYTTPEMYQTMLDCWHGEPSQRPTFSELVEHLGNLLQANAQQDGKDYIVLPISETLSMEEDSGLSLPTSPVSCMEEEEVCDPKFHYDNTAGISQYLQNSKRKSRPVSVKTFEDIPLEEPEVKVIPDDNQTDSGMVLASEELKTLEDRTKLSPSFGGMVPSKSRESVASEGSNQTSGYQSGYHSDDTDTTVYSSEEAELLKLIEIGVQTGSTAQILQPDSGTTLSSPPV
Sequence of Protein kinase C epsilon type (Homo sapiens) (Q02156 whole entry): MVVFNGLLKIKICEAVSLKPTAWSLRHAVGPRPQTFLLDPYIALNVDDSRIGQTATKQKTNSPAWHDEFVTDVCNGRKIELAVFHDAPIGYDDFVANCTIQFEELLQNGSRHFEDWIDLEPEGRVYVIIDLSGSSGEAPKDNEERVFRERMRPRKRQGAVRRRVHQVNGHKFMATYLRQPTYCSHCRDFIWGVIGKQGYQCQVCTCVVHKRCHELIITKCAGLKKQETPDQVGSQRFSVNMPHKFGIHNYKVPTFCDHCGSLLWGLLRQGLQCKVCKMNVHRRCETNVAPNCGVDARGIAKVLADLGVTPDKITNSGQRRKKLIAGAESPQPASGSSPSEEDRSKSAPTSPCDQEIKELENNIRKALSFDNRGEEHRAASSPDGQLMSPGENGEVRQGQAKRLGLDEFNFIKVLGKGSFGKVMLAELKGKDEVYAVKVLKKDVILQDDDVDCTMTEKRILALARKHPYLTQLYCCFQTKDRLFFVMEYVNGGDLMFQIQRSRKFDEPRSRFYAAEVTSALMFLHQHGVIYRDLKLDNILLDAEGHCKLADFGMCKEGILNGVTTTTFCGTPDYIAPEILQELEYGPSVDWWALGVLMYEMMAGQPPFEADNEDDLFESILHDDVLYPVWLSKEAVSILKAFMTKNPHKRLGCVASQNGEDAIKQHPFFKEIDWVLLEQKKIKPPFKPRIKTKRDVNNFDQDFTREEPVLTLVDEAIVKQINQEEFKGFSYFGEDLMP
Sequence of Cyclin-dependent kinase 16 (Homo sapiens) (Q00536 whole entry): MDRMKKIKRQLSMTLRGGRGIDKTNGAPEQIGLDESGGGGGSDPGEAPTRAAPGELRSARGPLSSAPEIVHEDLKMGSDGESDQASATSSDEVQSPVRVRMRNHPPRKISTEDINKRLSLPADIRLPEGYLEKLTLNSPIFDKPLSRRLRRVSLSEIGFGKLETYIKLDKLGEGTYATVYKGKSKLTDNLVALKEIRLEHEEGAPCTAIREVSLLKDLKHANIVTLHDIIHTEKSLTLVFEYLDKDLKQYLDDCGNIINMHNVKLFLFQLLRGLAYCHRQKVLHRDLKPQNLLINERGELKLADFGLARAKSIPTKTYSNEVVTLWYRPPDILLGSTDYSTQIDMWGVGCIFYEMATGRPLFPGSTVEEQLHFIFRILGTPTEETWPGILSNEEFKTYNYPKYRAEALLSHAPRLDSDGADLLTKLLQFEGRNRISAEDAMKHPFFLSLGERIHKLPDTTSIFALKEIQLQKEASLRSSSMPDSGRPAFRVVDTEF
Sequence of Calcium/calmodulin-dependent protein kinase kinase 2 (Homo sapiens) (Q96RR4 2-588 limits assumed): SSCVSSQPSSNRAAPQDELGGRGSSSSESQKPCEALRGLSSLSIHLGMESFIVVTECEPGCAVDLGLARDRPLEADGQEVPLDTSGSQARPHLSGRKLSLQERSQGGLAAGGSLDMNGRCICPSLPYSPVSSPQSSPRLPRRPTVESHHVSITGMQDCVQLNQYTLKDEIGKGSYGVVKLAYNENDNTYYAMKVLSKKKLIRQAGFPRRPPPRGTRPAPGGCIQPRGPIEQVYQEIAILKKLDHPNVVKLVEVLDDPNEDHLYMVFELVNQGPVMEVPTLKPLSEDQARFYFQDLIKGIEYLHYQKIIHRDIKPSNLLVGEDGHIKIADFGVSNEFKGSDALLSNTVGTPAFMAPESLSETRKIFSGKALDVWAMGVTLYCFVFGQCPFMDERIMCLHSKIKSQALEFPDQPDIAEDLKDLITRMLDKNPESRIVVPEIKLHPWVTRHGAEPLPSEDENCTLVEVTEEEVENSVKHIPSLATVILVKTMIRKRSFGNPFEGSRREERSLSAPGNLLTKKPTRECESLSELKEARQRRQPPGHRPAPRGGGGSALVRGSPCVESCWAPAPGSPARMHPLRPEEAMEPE

| SMILES | inhibition [1] | inhibition [2] | inhibition [3] | inhibition [4] | inhibition [5] | inhibition [6] | inhibition [7] | inhibition [8] | residual activity [9] | inhibition [10] | inhibition [11] | residual activity [12] | inhibition [13] |
| --- | --- | --- | --- | --- | --- | --- | --- | --- | --- | --- | --- | --- | --- |
| CCN1CCN(Cc2ccc(NC(=O)c3ccc(C)c(Oc4ccnc5[nH]ccc45)c3)cc2C(F)(F)F)CC1 | -2.8% | 13.2% | 2.9% | 11.6% | 20% | 18.4% | inactive | 13% | 1.5% | 33.6% |  |  |  |
| CCN1CCN(Cc2ccc(NC(=O)c3ccc(C)c(/C=C/c4cnc5[nH]ccc5c4OC)c3)cc2C(F)(F)F)CC1 |  |  |  |  |  |  |  |  |  |  | 11.4% | 100% | 29.6% |
